Measurements reported in patent publication US20250255293A1, “TISSUE DECONTAMINATION AND PRESERVATION SYSTEM” (priority 2024, published 2025).
Where two headings read alike, the source gives them in different places.

Key:
[1] = system: microbial contamination of osteoarticular fracture fragments; experiment: Quantitative microbial culture of osteoarticular fragments, colony forming units per specimen (Example 3); assay type: cell-based; settings: for Colony Forming Units, mean (SD): 20 min immersion (10% povidone-iodine or 0.002% chlorhexidine)
Source text: Purpose-bred hounds (n=16) were humanely euthanized, immediately after which an open articular fracture in both elbows (n=32) was created using a captive bolt pistol. Each dog was positioned in sternal recumbency with one forelimb extended and secured in a custom made positioning apparatus. Fur was not clipped and no aseptic preparation or techniques were implemented. A captive bolt stunner pistol with a 4.75-inch penetrating pin and 1.25 grain cartridge was centered on the cranial (anterior) aspect of the distal humerus, immediately proximal to the joint. With firm pressure against the secured elbow, the pistol was discharged, and the procedure was repeated for the contralateral elbow. Soft tissues were removed aseptically and the distal humerus (n=32), proximal radius (n=32), and trochlea (n=32) were osteotomized and processed under operating room conditions in 1 of 3 ways: 1) Betadine ([…]): 0.9% saline irrigation (1 L), 10% povidone-iodine solution immersion (20 min), saline irrigation; 2) Chlorhexidine (n=42): saline irrigation, 0.002% chlorhexidine solution immersion (20 min), saline irrigation; 3) Control (n=12): untreated. Each osteoarticular fragment was placed in 200 ml of MOPS® solution (500 ml DMEM, 5 ml ITS (insulin (10 mg/L), transferrin 55 mg/L), selenium (6.7 μg/L)), 5 ml total penicillin (100 U/ml), streptomycin (100 μg/ml), amphotericin B (2.5 μg/ml), 5 ml L-glutamine (2 mM), 5 ml non-essential amino acids (0.1 mM), 1 ml ascorbic acid (50 ng/ml), and 5.46 ml dexamethasone (0.1 μM)) in a sterile container and stored under standard room temperature and humidity conditions for 7 (n=46) or 14 (n=48) days. At each time point, viable chondrocyte density (VCD) and quantitative microbial culture assessments were assayed, yielding a count of colony forming units (CFU) per specimen.
In parallel, quantitative microbial cultures were performed on the humerus, radial head, and trochlea of each dog at either 7 or 14 days. Each tissue intended for culture was placed into 18 ml thioglycollate broth and vortexed for 30 seconds. One milliliter of the broth was immediately extracted for the 1:1 dilution and placed in an Eppendorf tube. Serial 1:10 dilutions were made from that subsample and plated within an hour. The plating process comprised 10 μl of each dilution streaked semi-quantitatively onto tryptic soy agar with 5% sheep blood and reduced blood agar. All dilutions were incubated for 72 hours before counting. Additional incubation in the remaining 17 ml thioglycollate for 48 hours was performed, and 10 μl of thioglycollate was re-streaked at that time and incubated for another 72 hours. Organisms were identified via MALDI-TOF or 16S sequencing.
Univariate comparison of VCD and CFU were performed via Kruskal-Wallis and Chi-squared test. Multivariate linear regression was used, controlling for osteotomy site and storage time, to determine the correlation between processing method and VCD or CFU. Data manipulation and statistical analysis were performed using R software.

[2] = system: clinically relevant bacterial species; experiment: Quantitative microbial culture of osteoarticular fracture fragments (Example 5); assay type: cell-based, Roseomonas sp, Methylobacterium sp; settings: for decontamination of osteoarticular tissues based on quantitative microbial tissue cultures (in words): days 7 and 14 of MOPS storage
Procedure: Skeletally mature purpose-bred research hounds (n=16) were humanely euthanized for purposes unrelated to the present study. Immediately following euthanasia, each dog was positioned in sternal recumbency with one forelimb extended and secured in a custom-made positioning apparatus. Fur was not clipped and no aseptic preparation or decontamination techniques were performed. Using a validated technique, a penetrating captive bolt stunner pistol (CASH Special, FRONTMATEC, Birmingham, United Kingdom) with a 1.25 grain cartridge was centered on the cranial (anterior) aspect of the distal humerus, immediately proximal to the elbow joint and with firm pressure against the secured elbow, the pistol was discharged, creating type 3 open distal humeral fractures. After the fractures were induced and radiographs obtained, the skin and soft tissues were aseptically removed. For each elbow (n=32), osteoarticular tissues were obtained from the distal humerus, proximal radius and proximal ulna such that 96 contaminated, devascularized, osteoarticular fracture fragments were randomly allocated to undergo treatment using one of the following protocols for comparison: 1)⋅Betadine (n=42): bulb irrigation using 1 L of 0.9% saline, followed by immersion in 10% povidone-iodine solution for 20 min, followed by bulb irrigation using 1 L of 0.9% saline; 2)⋅Chlorhexidine (n=42): bulb irrigation using 1 L of 0.9% saline, followed by immersion in 0.002% chlorhexidine gluconate solution immersion for 20 min, followed by bulb irrigation using 1 L of 0.9% saline; and 3)⋅Injured Control (n=12): no decontamination treatment. Each fragment was then immediately placed in 200 ml of Missouri Osteochondral Preservation System (MOPS®) solution in individual sterile closed containers, transported to the on-site laboratory and placed in a dedicated storage cabinet in standard room temperature and humidity conditions for 7 or 14 days.
Microbial Cultures. At days 7 (n=21) or 14 (n=21) of storage, osteoarticular fracture fragments were also collected and processed for quantitative microbial culture. […] Microorganism cultures were quantified using Colony-Forming Unit (CFU) counts per milliliter of broth. […] Post incubation, the number of colonies formed on each plate was counted. The number of CFUs per milliliter (CFU/ml) was calculated using the formula: CFU/ml=(number of colonies×dilution factor)/volume inoculated. […]
Statistical Analysis. All data were analyzed using statistical software R Studio, version 4.3.1 (Posit Software, Boston, MA, USA). Descriptive statistics for VCD, % VCD and CFU were calculated to report means, standard deviations, ranges and percentages. […]

[3] = system: contaminated osteochondral tissues; settings: 10% povidone-iodine or 0.4% chlorhexidine, 20-minute immersion; cited from earlier work
[4] = system: contaminated human femoral osteochondral allografts; settings: 0.002% chlorhexidine gluconate, pulse lavage (1 L) / immediate intraoperative treatment, cited from earlier work
human chondrocyte = settings: cited from earlier work
[5] = listed as chlorhexidine gluconate

## [H]/N=C(\N/C(=N/[H])NCCCCCCNC(=N)NC(=N)Nc1ccc(Cl)cc1)Nc1ccc(Cl)cc1 [Chlorhexidine, chlorhexidine gluconate]
[1]; at 7 days
  mean CFU: 0.4
[1]; at 14 days
  mean CFU: 7.9
[1]; multivariate linear regression, controlling for osteotomy site and storage timing
  decrease of CFU relative to control treatment: 15.8×10^6 CFU
[1]; saline irrigation, 0.002% chlorhexidine immersion, room temperature storage in MOPS
  decontamination of osteoarticular fracture fragments (in words): effective for decontaminating osteoarticular fracture fragments
[1]; storage time 7 days in MOPS at room temperature
  Colony Forming Units, mean (SD): 0.4 (1.8) 10^6 per specimen
[1]; storage time 14 days in MOPS at room temperature
  Colony Forming Units, mean (SD): 7.9 (14.2) 10^6 per specimen
[2]; days 7 and 14
  CFUs for clinically relevant bacterial species: No CFUs
[2]
  decontamination of osteoarticular tissues based on quantitative microbial tissue cultures (in words): effective at decontamination
[2]; listed as chlorhexidine
  decontamination of osteoarticular tissues based on quantitative microbial tissue cultures (in words): effectively decontaminated
[2]; [5]
  decontamination of osteoarticular tissues based on quantitative microbial tissue cultures (in words): effective for decontaminating
[3]
  decontamination of contaminated osteochondral tissues: effective at fully decontaminating
[4]; listed as Chlorhexidine Gluconate
  decontamination of contaminated osteochondral allografts: effective decontamination
[4]; [5]
  decontamination of contaminated osteochondral allografts: effective for complete decontamination
Human chondrocyte; 0.002% chlorhexidine gluconate, 7 days in tissue culture, listed as Chlorhexidine Gluconate
  chondrocyte viability after treatment: preserving chondrocyte viability for up to 7 days
Human chondrocyte; 0.002% chlorhexidine gluconate, 7 days in tissue culture, listed as chlorhexidine gluconate
  chondrocyte viability after treatment: maintain chondrocyte viability at day-0 level for 7 days
Human chondrocyte; higher concentrations of CHG than 0.002%
  chondrocyte viability after treatment: significant chondrocyte viability loss within 24 hours
